ChEMBL document CHEMBL1649419, “Design and synthesis of pyrimidinone and pyrimidinedione inhibitors of dipeptidyl peptidase IV” (J Med Chem, 2011)

What was measured:
[1] = Half life in rat liver microsomes by LC/MS analysis; format: ADME, Microsome
[2] = Half life in human liver microsomes by LC/MS analysis; format: ADME, Microsome
[3] = Half life in dog at 2.7 mg/kg, po; format: ADME, organism-based, Canis lupus familiaris; parameters: dose 2.7 mg/kg, route oral; conditions: in vivo
[4] = Half life in dog at 0.85 mg/kg, iv; format: ADME, organism-based, Canis lupus familiaris; parameters: dose 0.85 mg/kg, route intravenous; conditions: in vivo
[5] = Volume of distribution at steady state in dog at 0.85 mg/kg, iv and 2.7 mg/kg, po; format: ADME, organism-based, Canis lupus familiaris; conditions: in vivo, read-out: Vdss
[6] = AUC in dog at 2.7 mg/kg, po; format: ADME, organism-based, Canis lupus familiaris; parameters: dose 2.7 mg/kg, route oral; conditions: plasma
[7] = Oral bioavailability in dog at 2.7 mg/kg; format: ADME, organism-based, Canis lupus familiaris; conditions: in vivo
[8] = Half life in rat at 0.8 mg/kg, iv; format: ADME, organism-based; parameters: dose 0.8 mg/kg, route intravenous; conditions: in vivo
[9] = Oral bioavailability in rat at 11 mg/kg; format: ADME, organism-based; conditions: in vivo
[10] = Half life in rat at 11 mg/kg, po; format: ADME, organism-based; parameters: dose 11 mg/kg, route oral; conditions: in vivo
[11] = AUC in rat at 11 mg/kg, po; format: ADME, organism-based; parameters: dose 11 mg/kg, route oral; conditions: plasma
[12] = Oral bioavailability in dog at 2.5 mg/kg; format: ADME, organism-based, Canis lupus familiaris; conditions: in vivo
[13] = Volume of distribution at steady state in rat at 0.8 mg/kg, iv and 11 mg/kg, po; format: ADME, organism-based; conditions: in vivo, read-out: Vdss
[14] = Volume of distribution at steady state in dog at 0.8 mg/kg, iv and 2.5 mg/kg, po; format: ADME, organism-based, Canis lupus familiaris; conditions: in vivo, read-out: Vdss
[15] = Half life in dog at 0.8 mg/kg, iv; format: ADME, organism-based, Canis lupus familiaris; parameters: dose 0.8 mg/kg, route intravenous; conditions: in vivo
[16] = AUC in dog at 2.5 mg/kg, po; format: ADME, organism-based, Canis lupus familiaris; parameters: dose 2.5 mg/kg, route oral; conditions: plasma
[17] = Half life in dog at 2.5 mg/kg, po; format: ADME, organism-based, Canis lupus familiaris; parameters: dose 2.5 mg/kg, route oral; conditions: in vivo
[18] = Oral bioavailability in dog at 3 mg/kg; format: ADME, organism-based, Canis lupus familiaris; conditions: in vivo
[19] = Half life in rat at 10 mg/kg, po; format: ADME, organism-based; parameters: dose 10 mg/kg, route oral; conditions: in vivo
[20] = Half life in dog at 1 mg/kg, iv; format: ADME, organism-based, Canis lupus familiaris; parameters: dose 1 mg/kg, route intravenous; conditions: in vivo
[21] = Oral bioavailability in rat at 10 mg/kg; format: ADME, organism-based; conditions: in vivo
[22] = AUC in dog at 3 mg/kg, po; format: ADME, organism-based, Canis lupus familiaris; parameters: dose 3 mg/kg, route oral; conditions: plasma
[23] = Volume of distribution at steady state in dog at 1 mg/kg, iv and 3 mg/kg, po; format: ADME, organism-based, Canis lupus familiaris; conditions: in vivo, read-out: Vdss
[24] = AUC in rat at 10 mg/kg, po; format: ADME, organism-based; parameters: dose 10 mg/kg, route oral; conditions: plasma
[25] = Volume of distribution at steady state in rat at 2 mg/kg, iv and 10 mg/kg, po; format: ADME, organism-based; conditions: in vivo, read-out: Vdss
[26] = Half life in rat at 2 mg/kg, iv; format: ADME, organism-based; parameters: dose 2 mg/kg, route intravenous; conditions: in vivo
[27] = Half life in dog at 3 mg/kg, po; format: ADME, organism-based, Canis lupus familiaris; parameters: dose 3 mg/kg, route oral; conditions: in vivo
[28] = Half life in monkey at 7.6 mg/kg, po; format: ADME, organism-based, Macaca mulatta; parameters: dose 7.6 mg/kg, route oral; conditions: rhesus monkey, in vivo
[29] = Oral bioavailability in monkey at 7.6 mg/kg; format: ADME, organism-based, Macaca mulatta; conditions: rhesus monkey, in vivo
[30] = AUC in monkey at 7.6 mg/kg, po; format: ADME, organism-based, Macaca mulatta; parameters: dose 7.6 mg/kg, route oral; conditions: rhesus monkey, plasma
[31] = Half life in monkey at 1.1 mg/kg, iv; format: ADME, organism-based, Macaca mulatta; parameters: dose 1.1 mg/kg, route intravenous; conditions: rhesus monkey, in vivo
[32] = Volume of distribution at steady state in monkey at 1.1 mg/kg, iv and 7.6 mg/kg, po; format: ADME, organism-based, Macaca mulatta; conditions: rhesus monkey, in vivo, read-out: Vdss

| SMILES | half-life [1] | half-life [2] | also measured |
| --- | --- | --- | --- |
| N#Cc1ccccc1Cn1c(N2CCC[C@@H](N)C2)ncc(F)c1=O | > 3.33 h | > 3.33 h |  |
| Cc1nc(N2CCC[C@@H](N)C2)n(Cc2ccccc2C#N)c(=O)c1C | 0.167 h | > 3.33 h |  |
| Cl.N#Cc1ccccc1Cn1c(N2CCC[C@@H](N)C2)ncc(F)c1=O |  |  | half-life [3]: 4.5 h; half-life [4]: 4.6 h; Vd [5]: 3.5 L/kg; AUC [6]: 3200 ng·h/mL; bioavailability [7]: 80% |
| Cn1c(=O)cc(N2CCC[C@@H](N)C2)n(Cc2cc(F)ccc2Br)c1=O | 0.267 h | 1.5 h |  |
| N#Cc1ccccc1Cn1c(N2CCC[C@@H](N)C2)ncc(/C=C/c2ccccc2)c1=O | 0.567 h | > 3.33 h |  |
| Cn1c(=O)cc(N2CCC[C@@H](N)C2)n(Cc2ccc(F)cc2Cl)c1=O | 1.12 h | > 3.33 h |  |
| N#Cc1ccccc1Cn1c(N2CCC[C@@H](N)C2)nccc1=O | 2.18 h | > 3.33 h |  |
| Cn1c(=O)cc(N2CCC[C@@H](N)C2)n(Cc2cc(Cl)ccc2Cl)c1=O | 0.167 h | 2.75 h |  |
| Cn1c(=O)c(Cl)c(N2CCC[C@@H](N)C2)n(Cc2ccccc2C#N)c1=O | 0.933 h | 2.73 h |  |
| Cc1nc(N2CCC[C@@H](N)C2)n(Cc2ccccc2C#N)c(=O)c1Br | 0.383 h | > 3.33 h |  |
| COc1cnc(N2CCC[C@@H](N)C2)n(Cc2ccccc2C#N)c1=O | 0.333 h | > 3.33 h |  |
| Cl.N#Cc1ccccc1Cn1c(N2CCC[C@@H](N)C2)ncc(Cl)c1=O |  |  | half-life [8]: 1.3 h; bioavailability [9]: 65%; half-life [10]: 1.3 h; AUC [11]: 2800 ng·h/mL; bioavailability [12]: 90%; Vd [13]: 3 L/kg; Vd [14]: 1.9 L/kg; half-life [15]: 5.2 h; AUC [16]: 8400 ng·h/mL; half-life [17]: 4.8 h |
| N#Cc1ccc(F)cc1Cn1c(N2CCC[C@@H](N)C2)ncc(Cl)c1=O | 2.03 h | > 3.33 h |  |
| C=Cc1cnc(N2CCC[C@@H](N)C2)n(Cc2ccccc2C#N)c1=O | 0.1 h | 2.73 h |  |
| N#Cc1ccccc1Cn1c(N2CCC[C@@H](N)C2)ncc(/C=C/c2ccc(F)cc2)c1=O | > 3.33 h | 3.1 h |  |
| Cn1c(=O)cc(N2CCC[C@@](C)(N)C2)n(Cc2cc(F)ccc2C#N)c1=O | 0.583 h | > 3.33 h |  |
| CCn1c(=O)cc(N2CCC[C@@H](N)C2)n(Cc2ccccc2C#N)c1=O | 0.533 h | > 3.33 h |  |
| Cl.N#Cc1ccccc1Cn1c(N2CCC[C@@H](N)C2)ncc(Br)c1=O |  |  | bioavailability [18]: 105%; half-life [19]: 1.7 h; half-life [20]: 5.3 h; bioavailability [21]: 74%; AUC [22]: 14700 ng·h/mL; Vd [23]: 1.7 L/kg; AUC [24]: 2400 ng·h/mL; Vd [25]: 3.2 L/kg; half-life [26]: 1.1 h; half-life [27]: 6.1 h |
| N#Cc1ccccc1Cn1c(N2CCC[C@@H](N)C2)ncc(Cl)c1=O | 3.32 h | > 3.33 h |  |
| CC#Cc1cnc(N2CCC[C@@H](N)C2)n(Cc2ccccc2C#N)c1=O | > 3.33 h | > 3.33 h |  |
| N#Cc1ccccc1Cn1c(N2CCC[C@@H](N)C2)ncc(Br)c1=O | 1.57 h | > 3.33 h | half-life [28]: 5.4 h; bioavailability [29]: 112%; AUC [30]: 8200 ng·h/mL; half-life [31]: 4.2 h; Vd [32]: 4.2 L/kg |
| CCc1cnc(N2CCC[C@@H](N)C2)n(Cc2ccccc2C#N)c1=O | 0.117 h | > 3.33 h |  |
